According to ChEMBL document CHEMBL3621191, “Pyrimidine sulfonylacetanilides with improved potency against key mutant viruses of HIV-1 by specific targeting of a highly conserved residue” (Eur J Med Chem, 2015):

Columns and labels:
[1] = test system: Human immunodeficiency virus 1; assay: Antiviral activity against HIV1 3B expressing reverse transcriptase K103N + Y181C mutant infected in human MT4 cells assessed as reduction in virus-induced cytopathogenicity incubated for 4 days by MTT method; format: functional, organism-based; conditions: Human immunodeficiency virus 1, 3B, MT4, 96 h
[2] = test system: Human immunodeficiency virus 2; assay: Antiviral activity against HIV2 ROD infected in human MT4 cells assessed as reduction in virus-induced cytopathogenicity incubated for 4 days by MTT method; format: functional, organism-based; conditions: Human immunodeficiency virus 2, ROD, MT4, 96 h
[3] = Cytotoxicity against human MT4 cells assessed as reduction in cell viability incubated for 4 days by MTT assay; format: cell-based
[4] = Selectivity index, ratio of CC50 for human MT4 cells to EC50 for HIV1 3B infected in human MT4 cells; format: toxicity, cell-based; conditions: read-out: Ratio CC50/EC50
[5] = test system: Human immunodeficiency virus 1; assay: Antiviral activity against HIV1 expressing reverse transcriptase F227L + V106A mutant; format: functional, organism-based
[6] = biological target: Human immunodeficiency virus type 1 reverse transcriptase (Human immunodeficiency virus 1, UniProt Q72547); assay: Inhibition of HIV1 reverse transcriptase p66/p51 assessed as inhibition of biotin-dUTP incorporation using poly (rA)/oligo(dT)16 as template/primer incubated for 40 mins
[7] = test system: Human immunodeficiency virus 1; assay: Antiviral activity against HIV1 3B infected in human MT4 cells assessed as reduction in virus-induced cytopathogenicity incubated for 4 days by MTT method; format: functional, organism-based; conditions: Human immunodeficiency virus 1, 3B, MT4, 96 h
[8] = test system: Human immunodeficiency virus 1; assay: Antiviral activity against HIV1 expressing reverse transcriptase L100I mutant; format: functional, organism-based
[9] = test system: Human immunodeficiency virus 1; assay: Antiviral activity against HIV1 expressing reverse transcriptase K103N mutant; format: functional, organism-based
[10] = test system: Human immunodeficiency virus 1; assay: Antiviral activity against HIV1 expressing reverse transcriptase E138K mutant; format: functional, organism-based
[11] = test system: Human immunodeficiency virus 1; assay: Antiviral activity against HIV1 expressing reverse transcriptase Y181C mutant; format: functional, organism-based
[12] = test system: Human immunodeficiency virus 1; assay: Antiviral activity against HIV1 expressing reverse transcriptase Y188L mutant; format: functional, organism-based

| SMILES | EC50 [1] [µM] | EC50 [2] [µM] | CC50 at 96 h [3] [µM] | selectivity ratio [4] | EC50 [5] [nM] | IC50 [6] [nM] | EC50 [7] [nM] | EC50 [8] [nM] | EC50 [9] [nM] | EC50 [10] [nM] | EC50 [11] [nM] | EC50 [12] [nM] |
| --- | --- | --- | --- | --- | --- | --- | --- | --- | --- | --- | --- | --- |
| Cc1cc(C#N)cc(C)c1Oc1ccnc(SCC(=O)Nc2ccc(C#N)cc2)n1 | > 301 | > 301 | > 301 | > 71 | – | – | – | – | – | – | – | – |
| Cc1cc(C#N)cc(C)c1Oc1ccnc(S(=O)(=O)CC(=O)Nc2ccc(F)cc2)n1 | 4.36 | > 26.1 | 26.1 | 2930 | 1480 | 1840 | 8.9 | 749 | 40.9 | 227 | 681 | 3970 |
| Cc1cc(C#N)cc(C)c1Oc1ccnc(S(=O)(=O)CC(=O)Nc2ccccc2Cl)n1 | > 12.5 | > 12.5 | 12.5 | 8.7 | – | 143000 | 1440 | – | – | – | – | – |
| Cc1cc(C#N)cc(C)c1Oc1ccnc(S(=O)(=O)CC(=O)Nc2cccc(Cl)c2)n1 | 7.22 | > 25.4 | 25.4 | 831 | – | 978 | 30.6 | – | – | – | – | – |
| Cc1cc(C#N)cc(C)c1Oc1ccnc(S(=O)(=O)CC(=O)Nc2ccc(Cl)cc2)n1 | 1.05 | > 16.6 | 16.6 | 4740 | 678 | 720 | 3.5 | 190 | 10.1 | 41.6 | 129 | 1420 |
| Cc1cc(C#N)cc(C)c1Oc1ccnc(S(=O)(=O)CC(=O)Nc2ccc(Cl)cc2Cl)n1 | > 10.4 | > 10.4 | 10.4 | 36.5 | – | 15300 | 285 | – | – | – | – | – |
| Cc1cc(C#N)cc(C)c1Oc1ccnc(S(=O)(=O)CC(=O)Nc2ccc(Cl)c(Cl)c2)n1 | 1.18 | > 11.7 | 11.7 | 666 | 3200 | 177 | 17.5 | 468 | 44.8 | 244 | 326 | 1460 |
| Cc1cc(C#N)cc(C)c1Oc1ccnc(S(=O)(=O)CC(=O)Nc2cc(Cl)cc(Cl)c2)n1 | > 24 | > 24 | 24 | 58.9 | – | 918 | 407 | – | – | – | – | – |
| Cc1cc(C#N)cc(C)c1Oc1ccnc(S(=O)(=O)CC(=O)Nc2ccc(Br)cc2)n1 | 0.957 | > 15.6 | 15.6 | 5980 | 479 | 728 | 2.6 | 184 | 10 | 39.9 | 116 | 957 |
| Cc1cc(C#N)cc(C)c1Oc1ccnc(S(=O)(=O)CC(=O)Nc2ccc(C#N)cc2)n1 | 0.425 | ≥ 32.2 | ≥ 6.01 | ≥ 3540 | 127 | 65 | 1.7 | 67 | 3.4 | 16.5 | 31.3 | 313 |
| Cc1cc(C#N)cc(C)c1Oc1ccnc(S(=O)(=O)CC(=O)Nc2ccc(C#N)cc2F)n1 | > 269 | > 269 | > 269 | > 7810 | – | 296 | 34.4 | – | – | – | – | – |
| Cc1cc(C#N)cc(C)c1Oc1ccnc(S(=O)(=O)CC(=O)Nc2cccc([N+](=O)[O-])c2)n1 | ≥ 7.49 | > 23.6 | 23.6 | 501 | – | 1410 | 47.1 | – | – | – | – | – |
| Cc1cc(C#N)cc(C)c1Oc1ccnc(S(=O)(=O)CC(=O)Nc2ccc([N+](=O)[O-])cc2)n1 | 0.385 | > 59.6 | 59.6 | 45800 | 141 | 53 | 1.3 | 111 | 7.3 | 25.7 | 40.6 | 278 |
| Cc1cc(C#N)cc(C)c1Oc1ccnc(S(=O)(=O)CC(=O)Nc2ccccc2)n1 | > 29.3 | > 29.3 | 29.3 | 1120 | – | 15700 | 26 | – | – | – | – | – |
| Cc1cccc(NC(=O)CS(=O)(=O)c2nccc(Oc3c(C)cc(C#N)cc3C)n2)c1 | > 25.7 | > 25.7 | 25.7 | 75 | – | 133000 | 344 | – | – | – | – | – |
| Cc1ccc(NC(=O)CS(=O)(=O)c2nccc(Oc3c(C)cc(C#N)cc3C)n2)cc1 | ≥ 9.62 | > 7.49 | 7.49 | 1060 | – | 766 | 7.1 | – | – | – | – | – |
| Cc1ccc(NC(=O)CS(=O)(=O)c2nccc(Oc3c(C)cc(C#N)cc3C)n2)cc1C | > 13.9 | > 13.9 | 13.9 | 179 | – | 27300 | 77.7 | – | – | – | – | – |
| COc1ccc(NC(=O)CS(=O)(=O)c2nccc(Oc3c(C)cc(C#N)cc3C)n2)cc1 | > 5.11 | > 5.11 | 5.11 | 136 | – | 4660 | 37.6 | – | – | – | – | – |
| Cc1cc(C#N)cc(C)c1Oc1ccnc(S(=O)(=O)CC(=O)Nc2ccccc2F)n1 | > 28.4 | > 28.4 | 28.4 | 176 | – | 24300 | 161 | – | – | – | – | – |
| Cc1cc(C#N)cc(C)c1Oc1ccnc(S(=O)(=O)CC(=O)Nc2cccc(F)c2)n1 | 7.15 | > 25.9 | 25.9 | 1680 | – | 220 | 15.4 | – | – | – | – | – |
| O=C1Nc2ccc(Cl)cc2[C@@](C#CC2CC2)(C(F)(F)F)O1 [EFAVIRENZ] | – | – | > 6.34 | – | 228 | – | 6.3 | 95 | – | 5.4 | 8.2 | 348 |
| Cc1cc(C#N)cc(C)c1Oc1nc(Nc2ccc(C#N)cc2)nc(N)c1Br [ETRAVIRINE] | – | – | > 4.59 | > 1120 | 14.9 | – | – | 17.7 | 3.2 | 16.8 | 11.5 | 15.9 |
| Cc1ccnc2c1NC(=O)c1cccnc1N2C1CC1 [NEVIRAPINE] | ≥ 7.58 | – | > 15 | – | > 15000 | – | – | 3460 | 9350 | 289 | ≥ 12400 | > 15000 |
